Results: the supplement of paper PMC9663587

Tests used:
[1] = compound: C=CC(=O)Nc1ccc(C(=O)Nc2[nH]nc3c2CN(C(=O)N[C@H](CN(C)C)c2ccccc2)C3(C)C)cc1 [YKL-5-124]; assay: increase in dead-cell fraction, 72 h; higher = more death;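 further: breast cancer cell lines in 384-well plates, stained with Hoechst plus LIVE/DEAD far red dye and imaged, cells above an LDR intensity threshold counted dead, Hoechst-negative corpses included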
[2] = compound: CC(=O)c1c(C)c2cnc(Nc3ccc(N4CCN(CCOCCOCCOCCNC(=O)COc5cccc6c5C(=O)N(C5CCC(=O)NC5=O)C6=O)CC4)cn3)nc2n(C2CCCC2)c1=O [BSJ-03-123]; assay: as above
[3] = compound: CC(=O)c1c(C)c2cnc(Nc3ccc(N4CCNCC4)cn3)nc2n(C2CCCC2)c1=O; assay: as above
[4] = compound: CCN1CCN(Cc2ccc(Nc3ncc(F)c(-c4cc(F)c5nc(C)n(C(C)C)c5c4)n3)nc2)CC1; assay: as above
[5] = compound: T1, CCOc1cc2ncc(C#N)c(Nc3ccc(OCc4ccccn4)c(Cl)c3)c2cc1NC(=O)/C=C/CN(C)C [Neratinib/HKI272]; assay: as above
[6] = compound: CCc1cnn2c(NCc3ccc[n+]([O-])c3)cc(N3CCCC[C@H]3CCO)nc12; assay: as above
[7] = compound: CN(C)C(=O)c1cc2cnc(Nc3ccc(N4CCNCC4)cn3)nc2n1C1CCCC1 [LEE011/Ribociclib]; assay: as above
[8] = compound: CN(C)C/C=C/C(=O)Nc1ccc(C(=O)N2CCC[C@@H](Nc3ncc(Cl)c(-c4c[nH]c5ccccc45)n3)C2)cc1 [THZ531]; assay: as above
[9] = compound: CN(C)C/C=C/C(=O)Nc1ccc(C(=O)Nc2cccc(Nc3ncc(Cl)c(-c4c[nH]c5ccccc45)n3)c2)cc1 [THZ1]; assay: as above
[10] = compound: T2, CN1CC[C@H](c2c(O)cc(O)c3c(=O)cc(-c4ccccc4Cl)oc23)[C@H](O)C1 [Flavopiridol]; assay: as above
[11] = compound: T1, Neratinib/HKI272; assay: GR value, 72 h; higher = faster growth (1 = untreated, <0 = killing);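 further: breast cancer and non-malignant breast epithelial lines, nine half-log doses, viable cells counted by Hoechst and LIVE/DEAD dye imaging versus time-zero plates and DMSO controls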
[12] = compound: T2, Flavopiridol; assay: as above

SUM229PE
increase in dead-cell fraction ([1]; 0.001 µM): 0.0368 | increase in dead-cell fraction ([1]; 0.003162 µM): 0.0432 | increase in dead-cell fraction ([1]; 0.01 µM): 0.0321 | increase in dead-cell fraction ([1]; 0.03162 µM): 0.0316 | increase in dead-cell fraction ([1]; 0.1 µM): 0.0267 | increase in dead-cell fraction ([1]; 0.3162 µM): 0.0384 | increase in dead-cell fraction ([1]; 1 µM): 0.0161 | increase in dead-cell fraction ([1]; 3.162 µM): 0.0213 | increase in dead-cell fraction ([1]; 10 µM): 0.0246 | increase in dead-cell fraction ([2]; 0.001 µM): 0.0053 | increase in dead-cell fraction ([2]; 0.003162 µM): 0.0041 | increase in dead-cell fraction ([2]; 0.01 µM): -0.0026 | increase in dead-cell fraction ([2]; 0.03162 µM): -0.0037 | increase in dead-cell fraction ([2]; 0.1 µM): 0.0091 | increase in dead-cell fraction ([2]; 0.3162 µM): 0.0164 | increase in dead-cell fraction ([2]; 1 µM): 0.007 | increase in dead-cell fraction ([2]; 3.162 µM): 0.0152 | increase in dead-cell fraction ([2]; 10 µM): 0.0241 | increase in dead-cell fraction ([3]; 0.0003162 µM): -0.0072 | increase in dead-cell fraction ([3]; 0.001 µM): 0.0057 | increase in dead-cell fraction ([3]; 0.003162 µM): -0.0076 | increase in dead-cell fraction ([3]; 0.01 µM): -0.0059 | increase in dead-cell fraction ([3]; 0.03162 µM): -0.0018 | increase in dead-cell fraction ([3]; 0.1 µM): -0.0045 | increase in dead-cell fraction ([3]; 0.3162 µM): -0.0032 | increase in dead-cell fraction ([3]; 1 µM): -0.0082 | increase in dead-cell fraction ([3]; 3.162 µM): 0.009 | increase in dead-cell fraction ([4]; 0.001 µM): -0.0006 | increase in dead-cell fraction ([4]; 0.003162 µM): 0.004 | increase in dead-cell fraction ([4]; 0.01 µM): -0.0023 | increase in dead-cell fraction ([4]; 0.03162 µM): -0.0024 | increase in dead-cell fraction ([4]; 0.1 µM): 0.0008 | increase in dead-cell fraction ([4]; 0.3162 µM): -0.006 | increase in dead-cell fraction ([4]; 1 µM): 0.0054 | increase in dead-cell fraction ([4]; 3.162 µM): 0.0064 | increase in dead-cell fraction ([4]; 10 µM): 0.0095 | increase in dead-cell fraction ([5]; 0.0003162 µM): 0.0008 | increase in dead-cell fraction ([5]; 0.001 µM): 0.0005 | increase in dead-cell fraction ([5]; 0.003162 µM): -0.0005 | increase in dead-cell fraction ([5]; 0.01 µM): 0.0001 | increase in dead-cell fraction ([5]; 0.03162 µM): 0.0043 | increase in dead-cell fraction ([5]; 0.1 µM): 0.0062 | increase in dead-cell fraction ([5]; 0.3162 µM): 0.0046 | increase in dead-cell fraction ([5]; 1 µM): 0.0111 | increase in dead-cell fraction ([5]; 3.162 µM): 0.0132 | increase in dead-cell fraction ([6]; 0.0001 µM): -0.0001 | increase in dead-cell fraction ([6]; 0.0003162 µM): -0.0086 | increase in dead-cell fraction ([6]; 0.001 µM): 0.0057 | increase in dead-cell fraction ([6]; 0.003162 µM): -0.0015 | increase in dead-cell fraction ([6]; 0.01 µM): 0.0106 | increase in dead-cell fraction ([6]; 0.03162 µM): 0.0583 | increase in dead-cell fraction ([6]; 0.1 µM): 0.0925 | increase in dead-cell fraction ([6]; 0.3162 µM): 0.0682 | increase in dead-cell fraction ([6]; 1 µM): 0.0926 | increase in dead-cell fraction ([7]; 0.001 µM): 0.0025 | increase in dead-cell fraction ([7]; 0.003162 µM): -0.003 | increase in dead-cell fraction ([7]; 0.01 µM): 0.0012 | increase in dead-cell fraction ([7]; 0.03162 µM): 0.0068 | increase in dead-cell fraction ([7]; 0.1 µM): 0.0061 | increase in dead-cell fraction ([7]; 0.3162 µM): 0.0005 | increase in dead-cell fraction ([7]; 1 µM): 0.0021 | increase in dead-cell fraction ([7]; 3.162 µM): 0.0223 | increase in dead-cell fraction ([7]; 10 µM): 0.0109 | increase in dead-cell fraction ([8]; 0.0001 µM): 0.0065 | increase in dead-cell fraction ([8]; 0.0003162 µM): 0.0019 | increase in dead-cell fraction ([8]; 0.001 µM): -0.0006 | increase in dead-cell fraction ([8]; 0.003162 µM): 0.0039 | increase in dead-cell fraction ([8]; 0.01 µM): -0.0022 | increase in dead-cell fraction ([8]; 0.03162 µM): -0.005 | increase in dead-cell fraction ([8]; 0.1 µM): -0.0018 | increase in dead-cell fraction ([8]; 0.3162 µM): 0.0175 | increase in dead-cell fraction ([8]; 1 µM): 0.0884 | increase in dead-cell fraction ([9]; 0.0001 µM): 0.0012 | increase in dead-cell fraction ([9]; 0.0003162 µM): 0.0126 | increase in dead-cell fraction ([9]; 0.001 µM): 0.0025 | increase in dead-cell fraction ([9]; 0.003162 µM): 0.0048 | increase in dead-cell fraction ([9]; 0.01 µM): 0.0291 | increase in dead-cell fraction ([9]; 0.03162 µM): 0.0152 | increase in dead-cell fraction ([9]; 0.1 µM): 0.0835 | increase in dead-cell fraction ([9]; 0.3162 µM): 0.124 | increase in dead-cell fraction ([9]; 1 µM): 0.127 | increase in dead-cell fraction ([10]; 0.0001 µM): -0.0011 | increase in dead-cell fraction ([10]; 0.0003162 µM): -0.0025 | increase in dead-cell fraction ([10]; 0.001 µM): 0.0061 | increase in dead-cell fraction ([10]; 0.003162 µM): 0.0065 | increase in dead-cell fraction ([10]; 0.01 µM): -0.0032 | increase in dead-cell fraction ([10]; 0.03162 µM): -0.003 | increase in dead-cell fraction ([10]; 0.1 µM): 0.0189 | increase in dead-cell fraction ([10]; 0.3162 µM): 0.0897 | increase in dead-cell fraction ([10]; 1 µM): 0.0752 | GR value ([11]; 0.0003162 µM): 1.03 GR | GR value ([11]; 0.001 µM): 0.967 GR | GR value ([11]; 0.003162 µM): 0.972 GR | GR value ([11]; 0.01 µM): 0.951 GR | GR value ([11]; 0.03162 µM): 0.952 GR | GR value ([11]; 0.1 µM): 0.751 GR | GR value ([11]; 0.3162 µM): 0.562 GR | GR value ([11]; 1 µM): 0.386 GR | GR value ([11]; 3.162 µM): 0.203 GR | GR value ([12]; 0.0001 µM): 0.982 GR | GR value ([12]; 0.0003162 µM): 0.93 GR | GR value ([12]; 0.001 µM): 0.925 GR | GR value ([12]; 0.003162 µM): 0.954 GR | GR value ([12]; 0.01 µM): 0.927 GR | GR value ([12]; 0.03162 µM): 0.914 GR | GR value ([12]; 0.1 µM): 0.559 GR | GR value ([12]; 0.3162 µM): 0.0326 GR | GR value ([12]; 1 µM): -0.182 GR
